Literature values in patent EP0985412B1, “Cyclosporin compositions” (Panacea Biotec Limited, priority 1998, dated 2000).

Test system: normal epithelial tissue and Peyer's patch tissue of guinea pigs

Substance: Choleic acid
- absorption raised by a factor: 5-6
